# Patent publication US20090136472A1, “Use of thiazole derivatives and analogues in disorders caused by free fatty acids” (priority 2005, published 2009)
# How the values were obtained:
# MDA-MB-231 cells = assay: Test A cell proliferation assay (FFA/linolenic acid-stimulated, cell cycle analysis by flow cytometry); type: cell-based, human; details: 24 hours; for inhibition at 10 µM: Homo sapiens, at a concentration of 10 μM, cells in S-phase, read-out: percentage antagonist activity (inhibition of FFA induced cell proliferation); for inhibition at 10 µM / antagonism of free fatty acid stimulated cell proliferation: linolenic acid-stimulated MDA-MB-231 cells; for antagonism of free fatty acid stimulated cell proliferation: S-phase by propidium iodine staining
# Protocol: Cytomics™ FC500 Flow Cytometer with CXP software (Beckman Coulter) MDA-MB-231 cells MDA-MB-231 cells were cultured in the propagation media D-MEM+1000 mg/L Glucose+GlutaMAX™ 1+Pyruvate supplemented with 10% V/V Foetal Bovine Serum and PEST (100 U/ml penicillin, 100 μg/mL streptomycin). Cells were seeded in 6 well plates to a density of 300000 cells/well in propagation media. After 24 hours, media was replaced with serum free D-MEM media.
# Linolenic acid was diluted in DMSO to a concentration of 100 mM and added to the culture media to a final concentration of 100 μM.
# Compounds were as dissolved in DMSO to a concentrations of 10 mM (Compounds of Examples 95 and 6 (Compound X and Compound Y, respectively)) and 40 mM (Compound of Example 4 (Compound Z)) and added to the culture media to a final concentration of 10 μM (X and Y) and 40 μM (Z) respectively.
# After 24 hours in serum free media DMEM, linolenic acid (to a final concentration of […]) and compounds to be screened for activity were added to a final concentration of 10 μM (Compounds X and Y) and 40 μM (Compound Z) respectively. Final DMSO concentration was kept at 0.2% in all wells. After 24 hours of stimulation, cells were harvested and propidium iodine stained using a CyStain PI absolute T Kit according to manufacturer's recommendations. Cells were subsequently analyzed using a Cytomics™ FC500 Flow Cytometer with CXP software (Beckman Coulter) for cell cycle distribution. Cells were incubated with or without linolenic acid (LA) and the Compounds X, Y and Z for 24 hours at indicated concentrations. Cells in S-phase from untreated sample were set to 100% in each experiment.
# Ob/Ob mice = assay: Test B insulin measurement study in diabetic Ob/Ob mice; type: in vivo; details: 1 mg/kg intraperitoneally once daily for 2 weeks
# Protocol: Ultra sensitive rat insulin ELISA kit (Crystal Chen inc) according to manufacturer's recommendations.
# Serum insulin measurements on 4 hour fasted 8-9 week old Ob/Ob mice (Taconic) were performed. Mice were distributed to a vehicle control group (VC) or a Compound Z treatment group, so that mean s-insulin was equal between the groups. 1 mg/kg bodyweight of Compound Z in PBS/1% v/v DMSO and VC groups were injected intraperitoneally once daily for 2 weeks, after which 4 hour fasted serum insulin levels were measured as described above.
SMILES,effect on the basal proliferation of MDA-MB-231 cells (MDA-MB-231 cells; Compound X 10 μM without linolenic acid),inhibition at 10 µM (MDA-MB-231 cells) [%],antagonism of free fatty acid stimulated cell proliferation (MDA-MB-231 cells),hyperinsulinemia (4 hour fasted serum insulin level) (Ob/Ob mice)
"O=C1NC(=Nc2ccccn2)SC1Cc1ccc(F)cc1 (centres unmarked) [Compound X, 5-(4-Fluorobenzyl)-2-(pyridin-2-ylimino)thiazolidin-4-one]",did not exhibit any detectable effect,70,able to antagonize free fatty acid stimulated cell proliferation,–
"O=C1NC(=Nc2ccc(Cl)cc2)SC1Cc1cccc(C(F)(F)F)c1 (centres unmarked) [Compound Y, 5-(3-(Trifluoromethyl)benzyl)-2-(4-chlorophenylimino)thiazolidin-4-one]",–,100,able to antagonize free fatty acid stimulated cell proliferation,–
"Cc1ccc(N=C2NC(=O)C(Cc3cccc(C(F)(F)F)c3)S2)cc1 (centres unmarked) [Compound Z, 5-(3-(Trifluoromethyl)benzyl)-2-(p-tolylimino)thiazolidin-4-one]",–,50,able to antagonize free fatty acid stimulated cell proliferation,attenuated hyperinsulinemia
